In article PMC12226389, “Icariin interacts with IGFBP3 to alleviate diabetic cataract through PI3K/AKT signaling pathway” (iScience, 2025):

Target: T1, IGFBP3 (Homo sapiens, UniProt P17936)
T1 construct: protein immobilised on CM5 chip
Assay: SPR (Biacore T200, CM5 chip, immobilised IGFBP3)
Type: binding

T1 sequence (P17936 28-291): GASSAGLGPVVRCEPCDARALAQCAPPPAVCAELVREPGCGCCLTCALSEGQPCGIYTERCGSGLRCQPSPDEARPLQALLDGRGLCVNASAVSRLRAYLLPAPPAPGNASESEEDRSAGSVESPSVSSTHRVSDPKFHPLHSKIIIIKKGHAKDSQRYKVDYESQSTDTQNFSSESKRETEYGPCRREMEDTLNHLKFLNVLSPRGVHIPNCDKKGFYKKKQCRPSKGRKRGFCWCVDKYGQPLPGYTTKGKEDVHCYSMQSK

COc1ccc(-c2oc3c(CC=C(C)C)c(O[C@@H]4O[C@H](CO)[C@@H](O)[C@H](O)[C@H]4O)cc(O)c3c(=O)c2O[C@@H]2O[C@@H](C)[C@H](O)[C@@H](O)[C@H]2O)cc1 [Icariin]
Kd: 131 µM
